Reference: article PMC4822800, “Modifications of the 7-Hydroxyl Group of the Transthyretin Ligand Luteolin Provide Mechanistic Insights into Its Binding Properties and High Plasma Specificity” (PLoS ONE, 2016)
Like-named read-outs stand apart in the source and are kept apart here.

Key:
TTR [1] = target: T1, TTR (Homo sapiens, UniProt P02766); test: Microscale thermophoresis (MST) binding to NT-647-labelled TTR; settings: 300 nM NT-647-labelled TTR, PBS, 5% DMSO, mean ± S.E.M. of three measurements, read-out: dissociation constant (Kd)
T1 construct: Expression of TTR was performed as described previously; made in house; host or cells: Escherichia coli BL21
Experimental: We used MST to measure the affinity between the different ligands and TTR. TTR was labelled with the Monolith NT protein labelling kit (Nanotemper Technologies, Germany) using the sulfhydryl-reactive red fluorescent dye NT-647 Maleimide according to the manufacturer’s instructions. Labelled TTR was kept at a constant concentration of 300 nM, and luteolin, 7-Cl-Lut and 7-MeO-Lut were serially diluted yielding 13, 16 and 12 respectively different concentrations ranging from 0.24 nM to 1 μM for luteolin, 0.24 nM to 8 μM for 7-Cl-Lut, and 0.61 nM to 1.25 μM for 7-MeO-Lut. Experiments were carried out in phosphate-buffered saline and 5% DMSO with a Monolith NT.115 instrument using standard-treated capillaries (Nanotemper Technologies, Germany). Fluorescence was detected for 5 s, and the laser was switched on for 30 s followed by fluorescence detection for another 5 s. The delay time between runs was set to 25 s. The LED power and the MST were set to 80% for all drugs. Kd values were determined using NTanalysis software (NanoTemper Technologies, Germany) by fitting the data representing the mean ± S.E.M. from three independent measurements to the Kd fit model.
In order to obtain binding affinities between the drugs and TTR, we employed microscale thermophoresis (MST), which is a technique based on the directed movement of molecules in a temperature gradient. This phenomenon depends on a variety of molecular properties such as size, charge, hydration shell, and conformation. The dissociation constant (Kd) for luteolin was determined to be 150 ± 70 nM, which is in accordance with the previously published value of 100 nM determined by isothermal titration calorimetry (Fig 3A).
Fig 3 Binding of luteolin, 7-Cl-Lut and 7-MeO-Lut to NT-647–labeled TTR. Various concentrations of the compounds were titrated against 300 nM of NT-647–labeled TTR. Kd values were determined by averaging three independent experiments (mean ± S.E.M.) using the NT analysis software. The thermophoresis signal was plotted against luteolin (A), 7-Cl-Lut (B) and 7-MeO-Lut (C) concentrations.

[2] = Glucuronidation / depletion kinetics in human liver microsomes (UHPLC); type: in vitro ADME; settings: for half-life at 10 μM: female, pooled human liver microsomes, alamethicin-activated, 10 μM compound, 0.1 mg/mL human liver microsomes, 5 mM UDPGA, 37°C, one-phase exponential decay, read-out: half-life (t1/2); for metabolic stability relative to luteolin: human hepatic microsomes, glucuronidation by UGT enzymes
Experimental: Pooled female human liver microsomes (n = 10) were purchased from XenoTech (Lenexa, US) and stored at −80°C and rapidly thawed before use. The microsomes, 0.1 mg/mL, were activated by incubation with alamethicin (Santa Cruz Biotechnology, US), 50 μg/mL microsomal protein, in 0.1 M sodium phosphate buffer using a VWR Mini Shaker (Radnor, US) at 37°C and 550 rpm for 10 min. Luteolin, 7-Cl-Lut or 7-MeO-Lut was added to give a final concentration of 10 μM and 5% DMSO, and these were pre-incubated with the activated microsomes for 5 min at 37°C and shaking at 550 rpm. The reaction was initiated by addition of 5 mM uridine 5’-diphosphoglucuronic acid, (Santa Cruz Biotechnology, US). The incubation time ranged from 0 min to 5 h. The reactions were quenched by flash freezing and stored at −80°C. The microsomes were heat inactivated using a VWR UnoCycler (Radnor, US) for 5 min at 95°C. All experiments were repeated three times.
In order to calculate depletion kinetics, the percentage of the remaining drug was calculated by comparison with the initial quantity at 0 min. The half-life (t1/2) of luteolin, 7-Cl-Lut and 7-MeO-Lut was calculated using GraphPad Prism (GraphPad Software, Inc., US, version 5.0). Data were fitted to one-phase exponential decay: C=C0*exp(-K*t) (1) The half-life(t1/2)=0.693/K (2)
Microsome-treated samples were diluted in 50% DMSO. Analytical HPLC was performed using a Nexera UHPLC system (Shimadzu, US) connected to a diode array detector (SPP M20A). Samples were analyzed using a Nucleodur C18 HTec column (EC 150 × 4.6, 5 μm, Macherey-Nagel) with a flow rate of 1 mL/min. Aliquots of 20 μL of each sample were injected, and detection was performed at 345 nm. The mobile phase was composed of solvent A (H2O in 0.1% TFA) and solvent B (acetonitrile in 0.1% TFA). The binary gradient profile was as follows with solvent B as the reference: 0–2.5 min, 17% B; 2.5–7.5 min, 17–25% B; 7.5–15.5 min, 25–35% B; 15.5–20.5 min, 35–50% B; 20.5–25.5 min, 50–100% B; 25.5–30.5 min, 100% B; 30.5–31 min, 100–17% B; 31–35.5 min, 17% B. Before first injection, the column was equilibrated at 17% B for 5 min.
The metabolization of luteolin, 7-Cl-Lut and 7-MeO-Lut by the microsomes can be followed by the decrease in the substrate concentration over time. The data shown in Fig 7 were fitted to a single-component exponential decay model and the half-lives were determined using Eqs (1) and (2). Luteolin was metabolized about 3-fold faster than 7-Cl-Lut with half-lives of 16 ± 1 min and 52 ± 7 min, respectively.
Fig 7 Depletion profile of 10 μM luteolin (triangle), 7-Cl-Lut (square) and 7-MeO-Lut (diamond) after incubation in the presence of 0.1 mg/mL human liver microsomes for various times. Each time point represents the average of three independent samples (mean ± SD) acquired through plotting the integral of the corresponding peaks from the UHPLC analysis.

TTR in human plasma = target: T2, TTR in human plasma (Homo sapiens, UniProt P02766); test: Urea-mediated denaturation gel-shift assay of TTR stabilization in human plasma (western blot of monomers); type: biochemical; settings: for IC50: 4 M urea, 18 h, 20°C, densitometry of the monomeric band, read-out: IC50 (half maximal inhibitory concentration of TTR dissociation into monomers); for stoichiometric excess relative to TTR in human plasma to achieve the same stabilizing effect as luteolin: TTR assumed 5 μM
T2 construct: Human plasma from a healthy donor; from tissue; host or cells: human plasma (healthy donor)
Experimental: We have recently developed an assay in which the relative stability as a function of drug concentration can be evaluated in complex solutions [21]. TTR is found within the human plasma, and it is thus of interest to analyze drug efficacy in TTR’s natural environment. The analysis was performed as described previously with some modifications. Human plasma from a healthy donor was centrifuged at 20,000 × g for 10 min. The plasma was filtered using a 0.45 μm syringe filter (Filtropur S, Nümbrecht, Germany). A solution of 1 M sodium phosphate buffer at pH 7.0 was added to a final concentration of 40 mM. […] The reactions were incubated for 2 h at 20°C. Denaturation was initiated by addition of 4 M urea, 40 mM sodium phosphate buffer pH 7.4, and 150 mM NaCl. The samples were incubated for 18 h at 20°C followed by separation by gel electrophoresis using tricine-based SDS-PAGE with 0.025% SDS in the running buffer and 0.2% SDS in the loading buffer. […] Gel electrophoresis was followed by western blotting using rabbit anti-TTR antibody (anti-prealbumin, DAKO, Denmark) followed by a horseradish peroxidase-labeled antibody (anti-rabbit HRP, GE Healthcare, Sweden). Blocking of nonspecific binding on the membrane and incubation of the antibodies were performed in 5% fat-free powdered milk containing 0.3% Tween-20. All washing steps were performed in 40 mM Tris, 150 mM NaCl, and 0.3% Tween-20. Bound antibodies were visualized on photographic film using enhanced chemiluminescence (ECL-prime, GE Healthcare, UK). […] The presence of monomers on the photographic film was quantified through a densitometric analysis using the ImageJ 1.48 software (National Institutes of Health, […], US), which also ensured that all analyses were performed within a linear range. The plasma concentration of TTR is approximately 5 μM [38], and this implies that a drug must be present at ≥5 μM to work effectively as a stabilizer. Here we used a recently developed urea-mediated denaturation assay to determine the drug concentration needed in plasma to obtain the half maximal inhibitory concentration (IC50). In the experiment, the dissociation of TTR into monomers is monitored by the appearance of a monomeric band on a western blot (Fig 8). The fraction of denaturation was quantified by densitometric analysis using ImageJ 1.48 software. […] Fig 8 Determination of IC50 for luteolin, 7-Cl-Lut and 7-MeO-Lut in human plasma. The drug’s ability to selectively stabilize TTR in plasma was evaluated using a urea denaturation assay. The dissociation of the TTR tetramer is indicated by the presence of a monomeric TTR band on a western blot. (A) Gel-shift assay of various concentrations of luteolin in human plasma. […] (C) Gel-shift assay of various concentrations of 7-MeO-Lut in human plasma.

TTR [3] = target: T1, TTR; parameters: method as in ref 49 = [49]; PMID 22842046; doi:10.1016/j.jsb.2012.07.008; 49 Trivella DB , dos Reis CV , Lima LM , Foguel D , Polikarpov I ( 2012 ) Flavonoid interactions with human transthyretin: combined structural and thermodynamic analysis . J Struct Biol 180 : 143 – 15; settings: binding to TTR; cited from earlier work
TTR [4] = target: T1, TTR; parameters: method as in ref 37 = [37]; PMID 22842046; doi:10.1016/j.jsb.2012.07.008; 37 Trivella DBB , dos Reis CV , Lima LMTR , Foguel D , Polikarpov I ( 2012 ) Flavonoid interactions with human transthyretin: Combined structural and thermodynamic analysis . Journal of Structural Bio; settings: isothermal titration calorimetry; read-out: Kd, previously published value; cited from earlier work
[5] = parameters: method as in PMID 23556338; settings: in vivo persistence against metabolic activity; cited from earlier work

In the case of `O=c1cc(-c2ccc(O)c(O)c2)oc2cc(Cl)cc(O)c12` [7-Cl-Lut, 2-(3,4-dihydroxyphenyl)-5-hydroxy-7-chloro-4H-1-benzopyran-4-one], the Kd (TTR [1]) is reported as 620 ± 150 nM, the half-life at 10 μM [2] is reported as 52 ± 7 min and the “metabolic stability relative to luteolin” value [2] is reported as “approximately 3 fold”. The IC50 (TTR in human plasma) was roughly 65000 nM and the “stoichiometric excess relative to TTR in human plasma to achieve the same stabilizing effect as luteolin” value (TTR in human plasma) was 13 fold.
For `COc1cc(O)c2c(=O)cc(-c3ccc(O)c(O)c3)oc2c1` [7-MeO-Lut, 2-(3,4-dihydroxyphenyl)-5-hydroxy-7-methoxy-4H-1-benzopyran-4-one], the Kd (TTR [1]) was 390 ± 40 nM, the half-life at 10 μM [2] was 36 ± 8 min and the “metabolic stability relative to luteolin” value [2] was “doubled”. The IC50 (TTR in human plasma) was roughly 105000 nM and the “stoichiometric excess relative to TTR in human plasma to achieve the same stabilizing effect as luteolin” value (TTR in human plasma) was 21 fold.
For `O=c1cc(-c2ccc(O)cc2)oc2cc(O)cc(O)c12` [apigenin], the “times lower affinity compared to luteolin” value (TTR [3]) is listed as 5 times.
In the case of `O=c1cc(-c2ccccc2)oc2cc(O)cc(O)c12` [chrysin], the “times lower affinity compared to luteolin” value (TTR [3]) is listed as 17 times.
For `O=c1cc(-c2ccc(O)c(O)c2)oc2cc(O)cc(O)c12` [luteolin], the Kd (TTR [4]) is given as 100 nM, the half-life [5] is given as “around 8 hours” and the Kd (TTR [1]) is given as 150 ± 70 nM. It also gave a half-life at 10 μM [2] of 16 ± 1 min and an IC50 (TTR in human plasma) of roughly 5000 nM.
